In US8168651B2, “Protein kinase modulators” (Cylene Pharmaceuticals, Inc., priority 2008, dated 2012):
Like-named read-outs stand apart in the source and are kept apart here.

Legend:
[1] = molecular target: recombinant human CK2 (Homo sapiens (Human), UniProt P68400); test: CK2 assay (cell-free, 33P-ATP filter plate); type: biochemical; details: 500 nM compound, read-out: CK2: % inh 500 nM
[2] = system: HCT-116 human colorectal carcinoma cells; test: Cell-proliferation assay using Alamar Blue dye; type: cell-based; details: Homo sapiens;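 note: cells exposed to compound for about 4 days, then Alamar Blue added and dye fluorescence read after about 4 h, compared with medium-only control wells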
[3] = molecular target: recombinant human PIM1 (Homo sapiens (Human), UniProt P11309); test: PIM-1 kinase activity in cell-free in vitro assay; type: biochemical; details: for inhibition at 0.5 µM: 500 nM compound, read-out: PIM-1: % inh 500 nM
[4] = system: K-562; test: Cell proliferation modulatory activity, K-562; type: cell-based; details: Homo sapiens, K562; K-562 cells
[5] = system: MV-4-11; test: Cell proliferation modulatory activity, MV-4-11; type: cell-based; details: Homo sapiens, MV4-11; MV-4-11 cells
[6] = HCT-116, HCT-116, second column, read-out: HCT-116 (uM), cell proliferation modulatory activity
[7] = HCT-116, second HCT-116 column (c8), read-out: HCT-116 (uM) cell proliferation modulatory activity

Chain of recombinant human PIM1 (P11309 whole entry): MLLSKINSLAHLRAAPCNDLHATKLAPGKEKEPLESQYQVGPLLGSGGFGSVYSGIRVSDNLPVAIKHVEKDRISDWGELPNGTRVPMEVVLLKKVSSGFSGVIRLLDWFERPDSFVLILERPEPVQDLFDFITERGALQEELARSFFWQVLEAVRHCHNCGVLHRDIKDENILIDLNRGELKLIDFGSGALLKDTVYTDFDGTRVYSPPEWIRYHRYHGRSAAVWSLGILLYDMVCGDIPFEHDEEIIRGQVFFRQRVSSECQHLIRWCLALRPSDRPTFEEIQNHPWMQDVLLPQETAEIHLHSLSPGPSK
Chain of recombinant human CK2 (P68400 whole entry): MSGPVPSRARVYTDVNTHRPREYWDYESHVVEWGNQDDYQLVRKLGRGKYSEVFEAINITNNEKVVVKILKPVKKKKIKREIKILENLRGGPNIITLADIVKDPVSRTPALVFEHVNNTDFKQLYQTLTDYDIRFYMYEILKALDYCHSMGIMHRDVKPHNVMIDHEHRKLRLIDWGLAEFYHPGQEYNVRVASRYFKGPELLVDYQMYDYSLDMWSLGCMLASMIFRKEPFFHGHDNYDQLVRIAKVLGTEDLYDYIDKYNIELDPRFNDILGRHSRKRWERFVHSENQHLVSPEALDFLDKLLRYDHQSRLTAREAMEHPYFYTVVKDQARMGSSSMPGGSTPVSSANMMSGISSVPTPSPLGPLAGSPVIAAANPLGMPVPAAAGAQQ
Chain of recombinant human CK2 (P67870 whole entry partner): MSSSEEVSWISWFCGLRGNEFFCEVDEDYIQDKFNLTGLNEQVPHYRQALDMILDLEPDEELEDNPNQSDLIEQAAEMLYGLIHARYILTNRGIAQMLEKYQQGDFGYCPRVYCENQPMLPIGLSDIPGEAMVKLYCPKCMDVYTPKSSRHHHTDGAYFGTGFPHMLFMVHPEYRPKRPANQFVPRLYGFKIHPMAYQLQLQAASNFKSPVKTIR

| Compound | inhibition at 0.5 µM ([1]; cell-free) | IC50 [2, 6] | inhibition at 0.5 µM ([3]; cell-free) | IC50 [2, 7] | inhibition at 0.5 µM ([3]; cell-free assay) | IC50 [4] | IC50 [5] | IC50 ([3]; cell-free assay) | inhibition at 0.5 µM ([1]; cell-free assay) |
| --- | --- | --- | --- | --- | --- | --- | --- | --- | --- |
| CC(C)(C)OC(=O)CCNC(=O)c1cccc(Nc2nc3cc(-c4nnn[nH]4)ccc3c3sccc23)c1 | 40.5% | > 10 µM | -11.7% | – | – | – | – | – | – |
| O=C(O)c1ccc2c(c1)nc(Nc1cccc(C(=O)Nc3ccccc3)c1)c1ccsc12 | 37.7% | > 10 µM | -20.9% | – | – | – | – | – | – |
| O=C(O)c1ccc2c(c1)nc(Nc1cccc(C(=O)Nc3nccs3)c1)c1ccsc12 | 52.9% | > 10 µM | 5.99% | – | – | – | – | – | – |
| CC(C)(C)OC(=O)CCNC(=O)c1cccc(Nc2nc3cc(C(=O)O)ccc3c3sccc23)c1 | 65.5% | > 10 µM | 22.4% | – | – | – | – | – | – |
| O=C(O)c1ccc2c(c1)nc(Nc1cccc(C(=O)NCc3cccnc3)c1)c1ccsc12 | 62.2% | > 10 µM | 25.8% | – | – | – | – | – | – |
| CN(C)C(=O)c1cccc(Nc2nc3cc(C(=O)O)ccc3c3sccc23)c1 | 21.3% | > 10 µM | -12.2% | – | – | – | – | – | – |
| Cc1cc(CNC(=O)c2cccc(Nc3nc4cc(C(=O)O)ccc4c4sccc34)c2)no1 | 62.7% | > 10 µM | 10.6% | – | – | – | – | – | – |
| COCCNC(=O)c1cccc(Nc2nc3cc(C(=O)O)ccc3c3sccc23)c1 | 65.2% | > 10 µM | 12% | – | – | – | – | – | – |
| CC(=O)N1CCN(C(=O)c2cccc(Nc3nc4cc(C(=O)O)ccc4c4sccc34)c2)CC1 | 36.5% | > 10 µM | 20.8% | – | – | – | – | – | – |
| O=C(Cc1cccc(Nc2nc3cc(C(=O)O)ccc3c3sccc23)c1)NC1CC1 | 51.2% | > 10 µM | 19.1% | – | – | – | – | – | – |
| COC(=O)c1ccc2c(c1)nc(Nc1cccc(CC(=O)O)c1)c1ccsc12 | -6.27% | > 10 µM | 8.94% | – | – | – | – | – | – |
| CN(C)C(=O)Cc1cccc(Nc2nc3cc(C(=O)O)ccc3c3sccc23)c1 | 55.4% | > 10 µM | 42.5% | – | – | – | – | – | – |
| O=C(O)c1ccc2c(c1)nc(Nc1cccc(-c3ccccc3)c1)c1ccsc12 | 65.8% | > 10 µM | 4.58% | – | – | – | – | – | – |
| COC(=O)c1ccc2c(c1)nc(Nc1ccccc1)c1nc(SC)ncc12 | 6.43% | 9.56 µM | -26.7% | – | – | – | – | – | – |
| COC(=O)c1ccc2c(c1)nc(Nc1ccccc1)c1nc(S(C)(=O)=O)ncc12 | -44.2% | 0.967 µM | -27.8% | – | – | – | – | – | – |
| O=C(O)c1ccc2c(c1)nc(N1CCc3ccccc31)c1ccncc12 | – | – | – | > 10 µM | 9.63% | > 10 µM | – | – | 90.2% |
| O=C(O)c1ccc2c(c1)nc(Nc1ccccc1OC(F)(F)F)c1ccncc12 | – | – | – | > 10 µM | 32.5% | > 10 µM | – | – | 92% |
| O=C(O)c1ccc2c(c1)nc(Nc1cccc(Cl)c1)c1ncccc12 | – | – | – | > 10 µM | 16.7% | > 10 µM | – | – | 40% |
| O=C(O)c1ccc2c(c1)nc(Nc1ccc(F)c(Cl)c1)c1ncccc12 | – | – | – | > 10 µM | -15.5% | > 10 µM | – | – | 12.3% |
| O=C(O)c1ccc2c(c1)nc(Nc1ccccc1)c1ncccc12 | – | – | – | > 10 µM | – | > 10 µM | – | – | – |
| O=C(O)c1ccc2c(c1)nc(NCCNc1ccccc1)c1ccncc12 | – | – | – | > 10 µM | – | > 10 µM | 0.185 µM | 0.7 µM | – |
| CN(c1ccccc1)c1nc2cc(C(=O)O)ccc2c2cnc(N)nc12 | – | – | – | > 10 µM | – | > 10 µM | > 10 µM | 0.223 µM | – |
| O=C(O)c1ccc2c(c1)nc(Nc1cccc(F)c1)c1nccnc12 | – | – | – | > 10 µM | 21.9% | – | – | – | 88.7% |
| CN(c1ccccc1)c1nc2cc(C(=O)O)ccc2c2nccnc12 | – | – | – | > 10 µM | 1.15% | – | – | – | 19.3% |
| COc1cc(Nc2nc3cc(C(=O)O)ccc3c3cnccc23)cc(OC)c1 | – | – | – | > 10 µM | 72% | > 10 µM | 6.94 µM | 0.152 µM | 99.4% |
| N#Cc1ccc2c(c1)nc(NCC(O)c1ccccc1)c1ccsc12 (stereo not drawn) | – | – | – | > 10 µM | 6.38% | > 10 µM | > 10 µM | – | -9.58% |
| N#Cc1ccc2c(c1)nc(NCCn1cccc1)c1ccsc12 | – | – | – | > 10 µM | -25.6% | 6.07 µM | > 10 µM | – | -22.3% |
| Cc1nccn1CCNc1nc2cc(C#N)ccc2c2sccc12 | – | – | – | > 10 µM | 8.62% | > 10 µM | > 10 µM | – | -15.7% |
| N#Cc1ccc2c(c1)nc(NCCn1ccnc1)c1ccsc12 | – | – | – | > 10 µM | -0.12% | > 10 µM | > 10 µM | – | -14.9% |
| Cc1nccn1CCNc1nc2cc(-c3nnn[nH]3)ccc2c2sccc12 | – | – | – | > 10 µM | 81.5% | > 10 µM | > 10 µM | 0.119 µM | 62.1% |

Now from value to compound:

| inhibition at 0.5 µM ([1]; cell-free) | IC50 [2, 6] | inhibition at 0.5 µM ([3]; cell-free) | IC50 [2, 7] | inhibition at 0.5 µM ([3]; cell-free assay) | IC50 [4] | IC50 [5] | IC50 ([3]; cell-free assay) | inhibition at 0.5 µM ([1]; cell-free assay) | Compound |
| --- | --- | --- | --- | --- | --- | --- | --- | --- | --- |
| – | – | – | > 10 µM | 9.67% | > 10 µM | – | – | – | CSc1ncc2c(n1)c(Nc1ccccc1C)nc1cc(C(=O)O)ccc12 |
| – | – | – | 4.36 µM | 9.84% | 0.334 µM | – | – | – | COC(=O)c1ccc2c(c1)nc(N(C)c1ccccc1)c1nc(S(C)(=O)=O)ncc12 |
| – | – | – | > 10 µM | 31.4% | > 10 µM | – | – | – | CN(c1ccccc1)c1nc2cc(C(=O)O)ccc2c2cnc(NC3CC3)nc12 |
| – | – | – | 10 µM | 31.9% | 0.769 µM | 0.165 µM | – | – | Cc1ccccc1Nc1nc2cc(C(=O)O)ccc2c2cnc(NC3CC3)nc12 |
| – | – | – | 9.74 µM | 12.6% | > 10 µM | – | – | – | CNC(=O)c1ccc2c(c1)nc(N(C)c1ccccc1)c1nc(NC3CC3)ncc12 |
| – | – | – | > 10 µM | 16.1% | > 10 µM | – | – | – | CN(c1ccccc1)c1nc2cc(C(=O)NC3CC3)ccc2c2cnc(NC3CC3)nc12 |
| – | – | – | 5.19 µM | -0.201% | > 10 µM | – | – | – | CN(C)C(=O)c1ccc2c(c1)nc(N(C)c1ccccc1)c1nc(NC3CC3)ncc12 |
| – | – | – | 1.61 µM | 4.21% | > 10 µM | – | – | – | CNC(=O)c1ccc2c(c1)nc(Nc1ccccc1C)c1nc(NC3CC3)ncc12 |
| – | – | – | > 10 µM | 0.71% | > 10 µM | – | – | – | Cc1ccccc1Nc1nc2cc(C(=O)N(C)C)ccc2c2cnc(NC3CC3)nc12 |
| – | – | – | > 10 µM | 5.72% | > 10 µM | – | – | – | Cc1ccccc1Nc1nc2cc(C(=O)NC3CC3)ccc2c2cnc(NC3CC3)nc12 |
| – | – | – | > 10 µM | 38.8% | > 10 µM | – | – | – | O=C(O)c1ccc2c(c1)nc(N1CCc3c([nH]c4ccccc34)C1)c1ccncc12 |
| – | – | – | > 10 µM | 51.8% | > 10 µM | – | > 1.1 µM | – | O=C(O)c1ccc2c(c1)nc(NCCn1ccnc1)c1ccncc12 |
| – | – | – | > 10 µM | 97.1% | > 10 µM | > 10 µM | 0.287 µM | – | Cc1nccn1CCNc1nc2cc(C(=O)O)ccc2c2cnccc12 |
| – | – | – | > 10 µM | -7.8% | > 10 µM | – | – | 55.9% | O=C(O)c1ccc2c(c1)nc(NCC1CCN1Cc1ccccc1)c1ccncc12 (stereo not drawn) |
| – | – | – | > 10 µM | -32.4% | > 10 µM | – | – | -8.65% | COC(=O)c1ccc2c(c1)nc(NN)c1ccncc12 |
| – | – | – | > 10 µM | 1.37% | > 10 µM | – | – | 94.8% | O=C(O)c1ccc2c(c1)nc(Nc1ccn[nH]1)c1ccncc12 |
| – | – | – | > 10 µM | 45.8% | > 10 µM | – | – | 96.2% | Cn1nc(C2CC2)cc1Nc1nc2cc(C(=O)O)ccc2c2cnccc12 |
| – | – | – | > 10 µM | 34.9% | > 10 µM | – | – | 94.7% | CONc1nc2cc(C(=O)O)ccc2c2cnccc12 |
| – | – | – | > 10 µM | 55.7% | > 10 µM | – | 0.897 µM | 84.7% | CON(C)c1nc2cc(C(=O)O)ccc2c2cnccc12 |
| – | – | – | > 10 µM | – | > 10 µM | – | > 1.1 µM | – | O=C(O)c1ccc2c(c1)nc(NN1CCCCC1)c1ccncc12 |
| – | – | – | > 10 µM | 71.2% | > 10 µM | – | 0.439 µM | 89% | CN(c1ccccc1)c1nc2cc(C(=O)O)ccc2c2cnccc12 |
| – | – | – | > 10 µM | 24.9% | > 10 µM | – | – | 96.6% | Cc1cc(Nc2nc3cc(C(=O)O)ccc3c3cnccc23)c2ccccc2n1 |
| – | – | – | > 10 µM | 70.7% | > 10 µM | – | 0.372 µM | 97.3% | O=C(O)c1ccc2c(c1)nc(Nc1ccccc1Cl)c1ccncc12 |
| – | – | – | 4.65 µM | -6.14% | > 10 µM | 7.87 µM | – | -14.1% | CN1CCC(N(C)c2nc3cc(C#N)ccc3c3sccc23)C1 (stereo not drawn) |
| – | – | – | 1.41 µM | -3.97% | 3.04 µM | 1.84 µM | – | -20.3% | CN(CCN1CCCC1)c1nc2cc(C#N)ccc2c2sccc12 |
